Measured values published in publication PMC12107553 (ACS chemical neuroscience, 2024).
Read-outs that look alike come from different tables or passages of the source.

What was measured:
[1] = molecular target: GSK-3β (Homo sapiens, UniProt P49841); test: GSK-3β enzyme activity assay; assay type: biochemical; details: for GSK-3β inhibition, result in words: titration from 20 μM
[2] = molecular target: T1, HIV reverse transcriptase (RT) (Human immunodeficiency virus type 1 group M subtype B, UniProt P03366); details: read-out: HIV RT IC50; marked *, previously reported data ref 19; cited from earlier work
[3] = tested on: HIV, WT; details: read-out: HIV, WT EC50, cited from earlier work
[4] = molecular target: T1, HIV reverse transcriptase (RT); test: NNRTI assay; assay type: biochemical

Sequence of GSK-3β (P49841 whole entry): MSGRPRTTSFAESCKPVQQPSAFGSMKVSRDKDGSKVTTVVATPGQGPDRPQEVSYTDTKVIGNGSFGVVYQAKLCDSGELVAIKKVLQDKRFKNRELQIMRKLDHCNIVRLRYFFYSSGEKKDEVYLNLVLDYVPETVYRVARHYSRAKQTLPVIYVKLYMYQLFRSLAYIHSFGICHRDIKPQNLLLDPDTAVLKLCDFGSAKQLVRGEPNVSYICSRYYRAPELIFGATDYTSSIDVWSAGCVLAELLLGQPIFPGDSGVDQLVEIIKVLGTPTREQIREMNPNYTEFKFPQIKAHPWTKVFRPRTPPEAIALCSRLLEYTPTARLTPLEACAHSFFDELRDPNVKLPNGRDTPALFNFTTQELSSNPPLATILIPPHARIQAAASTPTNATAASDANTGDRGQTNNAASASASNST

Row | IC50 [1] [nM] | SMILES | GSK-3β inhibition, result in words [1] | IC50 [2] [nM] | EC50 ([3]; whole cell activity ref 22) [nM] | EC50 ([3]; whole cell activity ref 21) [nM] | IC50 [4] [nM]
1 | > 20000 | O=C1Nc2ccc(Cl)cc2[C@@](C#CC2CC2)(C(F)(F)F)O1 [Efavirenz] | not inhibitors |  |  | 2 | 
2 | 619 | Cc1cc(C#N)cc(C)c1Oc1nc(Nc2ccc(C#N)cc2)nc(N)c1Br [Etravirine] |  |  |  | 1 | 
3 | 1670 | Cc1ccnc2c1NC(=O)c1cccnc1N2C1CC1 [Nevirapine] |  |  |  | 110 | 

Row | SMILES | IC50 [1] [nM] | GSK-3β inhibition, result in words [1] | IC50 [2] [nM] | EC50 ([3]; whole cell activity ref 22) [nM] | EC50 ([3]; whole cell activity ref 21) [nM] | IC50 [4] [nM]
4 | Cn1c(Cn2ccc(C(F)(F)F)c(Oc3cc(Cl)cc(C#N)c3)c2=O)n[nH]c1=O [Doravirine] | > 20000 | not inhibitors | 20.7 | 13 |  | 
5 | Cc1cc(/C=C/C#N)cc(C)c1Nc1ccnc(Nc2ccc(C#N)cc2)n1 [Rilpivirine] | 502 |  |  |  | 0.67 | 160
